Assay results: publication PMC7278359, “Small molecule AX-024 reduces T cell proliferation independently of CD3ϵ/Nck1 interaction, which is governed by a domain swap in the Nck1-SH3.1 domain” (The Journal of Biological Chemistry, 2020)
“Also recorded” adds a separate entry of the source.

Assays:
[1] = tested on: α 1A adrenoreceptor; assay: Selectivity panel (Eurofins, CEREP); assay type: binding; details: 10 μM AX-024, single point; human receptor; radioactive antagonist ligand
Description: (§1) AX-024 was submitted to a selectivity panel comprising 50 recurring off-targets, including G protein–coupled receptors, channels, transporters, and metabolic enzymes (Eurofins, CEREP).
(§2) Supplemental Table 1: SPR peptide titrations
(§3) Single point measurements at 10 μM for 50 targets in a selectivity panel.
(§4) human receptors, except for the Ca2+ channel, which is from rat. A radioactive antagonist ligand was used
(§5) for the detection. The tests were conducted by Euro fins (https://www.eurofinsdiscoveryservices.com ).

[2] = tested on: Muscarinic M1; assay: Selectivity panel (Eurofins, CEREP); assay type: binding; details: 10 μM AX-024, single point; human receptor; radioactive antagonist ligand
Description: as §1, §2, §3, §4, §5

[3] = tested on: Ca2+ channel (CaV1.2) (L, diltiazem site); assay: Selectivity panel (Eurofins, CEREP); assay type: binding; details: probe radioactive antagonist ligand, 10 μM AX-024, single point, rat Ca2+ channel
Description: as §1, §2, §3, §4, §5

[4] = tested on: 5-HT2B; assay: Selectivity panel (Eurofins, CEREP); assay type: binding; details: 10 μM AX-024, single point; human receptor; radioactive antagonist ligand
Description: as §1, §2, §3, §4, §5

[5] = tested on: Dopamine D1; assay: Selectivity panel (Eurofins, CEREP); assay type: binding; details: 10 μM AX-024, single point; human receptor; radioactive antagonist ligand
Description: as §1, §2, §3, §4, §5

[6] = tested on: Muscarinic M2; assay: Selectivity panel (Eurofins, CEREP); assay type: binding; details: 10 μM AX-024, single point; human receptor; radioactive antagonist ligand
Description: as §1, §2, §3, §4, §5

[7] = tested on: Histamine H3; assay: Selectivity panel (Eurofins, CEREP); assay type: binding; details: 10 μM AX-024, single point; human receptor; radioactive antagonist ligand
Description: as §1, §2, §3, §4, §5

[8] = tested on: monomeric Nck1-SH3.1; assay: Ligand-observed NMR with monomeric Nck1-SH3.1; assay type: binding, human; details: 50 μM ligand, 10 μM monomeric Nck1-SH3.1 (residues 1–61), pH 6.5, 150 mM NaCl, 27 °C
Description: (§6) NMR spectra were recorded on a Bruker 600-MHz Avance NEO spectrometer equipped with a cryogenic QCI probe head at 27 °C in 25 mM […], 150 mM NaCl. The Topspin 4.0 software (Bruker, Fällanden) was used for spectrometer operation and data processing. For ^1H ligand-observed measurements, a relaxation filtered pulse sequence utilizing a spinlock of 50 ms was applied. 1D spectra were acquired with 128 scans, a sweep width of 26 ppm, and an acquisition time of 2 s. 2D ^1H-^15N HSQC spectra with natural ^15N isotope abundance were recorded over 72 h with a spectral width of 16 ppm and 35 ppm in the proton and nitrogen dimensions, respectively, with 256 increments (complex) and 1000 scans per increment. A relaxation delay of 1 s was used between scans. For the DOSY measurements (reviewed in Ref. [51]), the Bruker pulse sequence ledbpgp2s with a diffusion delay of 50 ms and a gradient length of 600 μs was used. The gradient strength was varied from 5 to 95% to record 16 increments of 512 scans with a sweep width of 18 ppm and a relaxation delay of 1 s.
(§7) Samples for ligand-observed measurements were prepared in 25 mM sodium phosphate buffer, pH 6.5, 150 mM NaCl. One sample contained 50 μM AX-024, and the other contained 50 μM CD3ϵ peptide.

[9] = tested on: CD3ϵ peptide/Nck1-SH3.1 interaction; assay: SPR competition with CD3ϵ peptide on immobilized Nck1-SH3.1; assay type: binding, human; details: 100 μM AX-024 co-injected with 100 μM CD3ϵ peptide
Description: SPR experiments were conducted on a T200 Biacore instrument (GE Healthcare, Uppsala, Sweden) at 20 °C in 10 mM HEPES/NaOH, pH 7.8, 150 mM NaCl, 1 mM TCEP. His10-Avi-TEV-Nck1-SH3.1 (residues 1–61, MM 11,847 Da) was biotinylated and immobilized via streptavidin on the surface of either a CAP or a SA sensor, prepared according to the manufacturer's instructions (GE Healthcare). Streptavidin is immobilized on the CAP sensor by way of double-strand DNA formation. A ssDNA is covalently coupled to the sensor surface, and a complementary DNA strand, covalently linked to streptavidin, is hybridized. To regenerate the surface, the DNA duplex is dissociated by washing with high-ionic strength solution. Thus, after each titration, fresh biotinylated Nck1-SH3.1 was immobilized on the sensor surface. For CD3ϵ peptide-binding experiments, the surface density of the Nck1-SH3.1 domain was ∼250 response units (RU), whereas for binding experiments with AX-024 and APVA variant peptides, the surface density of Nck1-SH3.1 was increased to 1260 RU. […]
Binding of the CD3ϵ-derived peptide […]-NH2 (CD3ϵ residues 173–188; MM 1864.1 Da) or of the APVA variant […]-NH2 (MM 1811.1 Da) to the immobilized Nck1-SH3.1 domain was monitored in a concentration-dependent manner between 0.4 and 100 μM CD3ϵ peptide (200 μM in the case of the APVA variant peptide). […]

[10] = tested on: dimeric Nck1-SH3.1; assay: Ligand-observed NMR with dimeric Nck1-SH3.1; assay type: binding, human; details: 50 μM ligand, 10 μM dimeric Nck1-SH3.1 (residues 1–61), pH 6.5, 150 mM NaCl, 27 °C
Description: as §6, §7

## COc1ccc2c(c1)C(c1ccc(F)cc1)=C(CN1CCCC1)CO2.Cl [AX-024, 1-((4-(4-fluorophenyl)-6-methoxy-2H-chromen-3-yl)methyl)pyrrolidine hydrochloride]
[1]
  % inhibition: 79.3%
[2]
  % inhibition: 95.0%
[3]
  inhibition at 10 μM: 66.3%
[4]
  % inhibition: 80.1%
[5]
  % inhibition: 85.3%
[6]
  % inhibition: 81.3%
[7]
  % inhibition: 95.1%
[8]
  ligand-observed NMR, spectral change / line broadening: no binding of AX-024 was detected by NMR; also recorded: do not show any spectral changes
[9]
  effect on binding of CD3ϵ peptide to Nck1-SH3.1 (competition): unaffected by AX-024; also recorded: failed to show an effect on binding of CD3ϵ to immobilized Nck1-SH3.1
[10]
  ligand-observed NMR, spectral change / line broadening: do not show any spectral changes; also recorded: no interaction was observed
